# In the supplement of paper PMC10307832:
# Compound: COc1cc(Nc2ncc(F)c(Nc3ccc4c(n3)NC(=O)C(C)(C)O4)n2)cc(OC)c1OC [R406] + COc1cc2c(Oc3ccc(NC(=O)C4(C(=O)Nc5ccc(F)cc5)CC4)cc3F)ccnc2cc1OCCCN1CCOCC1 [Foretinib] (partner 0.25 µM)
# Experiment: relative viability (nuclei count vs DMSO), 5 days (fraction); higher = more cells survive
# Settings: first compound 8 µM
# Summary of the method: (§1)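 Five library-drug doses in √10 steps were combined with a fixed anchor-drug dose, or a single drug was given alone, by pin tool to lung cancer cell lines in 1536-well plates the day after seeding. Nuclei were stained and counted after 5 days. Relative viability is the nuclei count in treated wells over that in vehicle wells, taken as the median of duplicate plates.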
row,Cell Line,relative viability
1,SK-LU-1,0.12
2,NCI-H661,0.76

# Compound: COc1cc(Nc2ncc(F)c(Nc3ccc4c(n3)NC(=O)C(C)(C)O4)n2)cc(OC)c1OC [R406] + Cc1cc(Nc2cc(N3CCN(C)CC3)nc(Sc3ccc(NC(=O)C4CC4)cc3)n2)n[nH]1 [Tozasertib] (partner 0.1 µM)
# Experiment: as above
# Settings: first compound 0.08 µM
# Summary of the method: as §1
row,Cell Line,relative viability
1,NCI-H522,0.467
2,NCI-H2342,0.494
3,NCI-H838,0.247
4,NCI-H1650,0.394
5,NCI-H1993,0.597
6,NCI-H441,0.676
7,PC-14,0.57
8,LCLC-103H,0.524
9,NCI-H596,0.868
10,NCI-H2126,0.829
11,EMC-BAC-2,0.311
12,NCI-H2085,0.83
13,HCC-366,0.101
14,NCI-H1666,0.584
15,NCI-H647,0.261
16,LK-2,0.17
17,NCI-H2087,0.293

row,Cell Line,relative viability
1,NCI-H358,0.107
2,NCI-H2170,0.758
3,H3255,0.673
4,COR-L23,0.173
5,COR-L 105,0.344
6,ChaGo-K-1,0.224
7,HCC-44,0.909
8,SK-MES-1,0.916
9,SW 900,0.49
10,NCI-H2009,0.816
11,NCI-H520,0.499
12,SW 1573,0.179
13,NCI-H2228,0.27
14,NCI-H2023,0.384
15,NCI-H1623,0.447
16,SK-LU-1,0.301
17,NCI-H661,0.337

# Same assay, conditions: first compound 0.253 µM
row,Cell Line,relative viability
1,NCI-H522,0.527
2,NCI-H2342,0.644
3,NCI-H838,0.327
4,NCI-H1650,0.449
5,NCI-H1993,0.536
6,NCI-H441,0.72
7,PC-14,0.681
8,LCLC-103H,0.495
9,NCI-H596,1.01
10,NCI-H2126,0.962
11,EMC-BAC-2,0.286
12,NCI-H2085,0.892
13,HCC-366,0.0718
14,NCI-H1666,0.725
15,NCI-H647,0.327
16,LK-2,0.163
17,NCI-H2087,0.238

row,Cell Line,relative viability
1,NCI-H358,0.116
2,NCI-H2170,0.703
3,COR-L23,0.218
4,COR-L 105,0.325
5,ChaGo-K-1,0.203
6,HCC-44,0.532
7,SK-MES-1,0.942
8,SW 900,0.584
9,NCI-H2009,0.848
10,NCI-H520,0.469
11,SW 1573,0.233
12,NCI-H2228,0.31
13,NCI-H2023,0.396
14,NCI-H1623,0.419
15,SK-LU-1,0.318
16,NCI-H661,0.322

# Same assay, conditions: first compound 0.8 µM
row,Cell Line,relative viability
1,NCI-H522,0.562
2,NCI-H2342,0.491
3,NCI-H838,0.248
4,NCI-H1650,0.461
5,NCI-H1993,0.605
6,NCI-H441,0.635
7,PC-14,0.623
8,LCLC-103H,0.569
9,NCI-H596,1.05
10,NCI-H2126,0.848
11,EMC-BAC-2,0.305
12,NCI-H2085,0.872
13,HCC-366,0.133
14,NCI-H1666,0.582
15,NCI-H647,0.26
16,LK-2,0.166
17,NCI-H2087,0.298
18,NCI-H358,0.081

row,Cell Line,relative viability
1,NCI-H2170,0.708
2,H3255,0.782
3,COR-L23,0.164
4,COR-L 105,0.439
5,ChaGo-K-1,0.251
6,HCC-44,0.963
7,SK-MES-1,0.914
8,SW 900,0.459
9,NCI-H2009,0.716
10,NCI-H520,0.45
11,SW 1573,0.22
12,NCI-H2228,0.253
13,NCI-H2023,0.354
14,NCI-H1623,0.442
15,NCI-H1648,0.498
16,SK-LU-1,0.363
17,NCI-H661,0.32

# Same assay, conditions: first compound 2.53 µM
row,Cell Line,relative viability
1,NCI-H522,0.582
2,NCI-H2342,0.469
3,NCI-H838,0.254
4,NCI-H1650,0.164
5,NCI-H1993,0.493
6,NCI-H441,0.524
7,PC-14,0.546
8,LCLC-103H,0.503
9,NCI-H596,0.513
10,NCI-H2126,0.806
11,EMC-BAC-2,0.279
12,NCI-H2085,0.632
13,HCC-366,0.0575
14,NCI-H1666,0.633
15,NCI-H647,0.21
16,LK-2,0.182
17,NCI-H358,0.109

row,Cell Line,relative viability
1,NCI-H2170,0.615
2,H3255,0.604
3,COR-L23,0.15
4,COR-L 105,0.237
5,ChaGo-K-1,0.218
6,HCC-44,0.979
7,SK-MES-1,0.719
8,SW 900,0.515
9,NCI-H2009,0.627
10,NCI-H520,0.347
11,SW 1573,0.175
12,NCI-H2228,0.278
13,NCI-H2023,0.225
14,NCI-H1623,0.429
15,NCI-H1648,0.608
16,SK-LU-1,0.256
17,NCI-H661,0.348

# Same assay, conditions: first compound 8 µM
row,Cell Line,relative viability
1,NCI-H522,0.433
2,NCI-H2342,0.479
3,NCI-H838,0.217
4,NCI-H1650,0.185
5,NCI-H1993,0.432
6,NCI-H441,0.265
7,PC-14,0.603
8,LCLC-103H,0.376
9,NCI-H596,0.267
10,NCI-H2126,0.545
11,EMC-BAC-2,0.246
12,NCI-H2085,0.379
13,HCC-366,0.0313
14,NCI-H1666,0.418
15,NCI-H647,0.173
16,LK-2,0.186
17,NCI-H2087,0.253
18,NCI-H358,0.0818

row,Cell Line,relative viability
1,NCI-H2170,0.632
2,H3255,0.603
3,COR-L23,0.113
4,COR-L 105,0.399
5,ChaGo-K-1,0.164
6,HCC-44,0.393
7,SK-MES-1,0.377
8,SW 900,0.44
9,NCI-H2009,0.311
10,NCI-H520,0.219
11,SW 1573,0.0962
12,NCI-H2228,0.066
13,NCI-H2023,0.178
14,NCI-H1623,0.401
15,NCI-H1648,0.639
16,SK-LU-1,0.106
17,NCI-H661,0.324

# Compound: O=C(/C=C/c1cccnc1)NCCCCC1CCN(C(=O)c2ccccc2)CC1 [Daporinad] + Cc1nc(NC(=O)N2CCC[C@H]2C(N)=O)sc1-c1ccnc(C(C)(C)C(F)(F)F)c1 [Alpelisib] (partner 2 µM)
# Experiment: as above
# Settings: first compound 0.0005 µM
# Summary of the method: as §1
row,Cell Line,relative viability
1,NCI-H838,0.973
2,EBC-1,0.761
3,NCI-H1703,0.412
4,NCI-H1993,0.696
5,PC-14,0.985
6,LCLC-103H,1.01
7,NCI-H596,0.539
8,NCI-H2126,0.734
9,EMC-BAC-2,0.822
10,NCI-H2085,0.952
11,Calu-6,0.934
12,HCC-366,0.44
13,NCI-H1666,1.04
14,NCI-H647,1.2
15,LK-2,0.995
16,NCI-H2087,1.07
17,NCI-H358,0.833
18,NCI-H2170,0.811

row,Cell Line,relative viability
1,H3255,0.696
2,COR-L23,0.891
3,COR-L 105,1.14
4,IA-LM,0.865
5,HCC-44,0.817
6,A549,0.764
7,SK-MES-1,0.841
8,NCI-H2009,1.17
9,NCI-H520,0.967
10,SW 1573,0.615
11,NCI-H1299,1.15
12,NCI-H2228,0.744
13,NCI-H1792,0.715
14,NCI-H2023,0.656
15,NCI-H1563,0.956
16,SK-LU-1,0.933
17,NCI-H661,0.635

# Same assay, conditions: first compound 0.001581 µM
row,Cell Line,relative viability
1,NCI-H838,1.03
2,EBC-1,0.901
3,NCI-H1703,0.379
4,NCI-H1993,0.67
5,NCI-H441,0.603
6,PC-14,0.97
7,LCLC-103H,1.01
8,NCI-H596,0.551
9,NCI-H2126,0.758
10,EMC-BAC-2,0.773
11,NCI-H2085,1.01
12,Calu-6,0.96
13,HCC-366,0.503
14,NCI-H1666,1.13
15,NCI-H647,1.07
16,LK-2,1.24
17,NCI-H2087,1.36
18,NCI-H358,0.984

row,Cell Line,relative viability
1,NCI-H2170,0.825
2,H3255,0.812
3,COR-L23,1.01
4,COR-L 105,1.02
5,IA-LM,0.983
6,HCC-44,0.937
7,A549,0.804
8,SK-MES-1,0.894
9,NCI-H2009,1.15
10,NCI-H520,0.546
11,SW 1573,0.788
12,NCI-H1299,1.06
13,NCI-H2228,0.87
14,NCI-H1792,0.761
15,NCI-H2023,0.636
16,NCI-H1563,0.923
17,SK-LU-1,1.22
18,NCI-H661,0.506

# Same assay, conditions: first compound 0.005 µM
row,Cell Line,relative viability
1,NCI-H838,1.06
2,EBC-1,0.935
3,NCI-H1703,0.466
4,NCI-H1993,0.685
5,NCI-H441,0.754
6,PC-14,0.913
7,LCLC-103H,1.02
8,NCI-H596,0.617
9,NCI-H2126,0.777
10,EMC-BAC-2,0.544
11,NCI-H2085,1.14
12,Calu-6,1.09
13,HCC-366,0.542
14,NCI-H1666,1.23
15,NCI-H647,1.19
16,LK-2,0.719
17,NCI-H2087,1.14
18,NCI-H358,0.887

row,Cell Line,relative viability
1,NCI-H2170,0.795
2,H3255,0.725
3,COR-L23,0.691
4,COR-L 105,1.12
5,IA-LM,0.967
6,HCC-44,0.825
7,A549,0.879
8,SK-MES-1,0.947
9,NCI-H2009,1.21
10,NCI-H520,0.196
11,SW 1573,0.938
12,NCI-H1299,1.04
13,NCI-H2228,0.702
14,NCI-H1792,0.339
15,NCI-H2023,0.689
16,NCI-H1563,0.723
17,SK-LU-1,1.47
18,NCI-H661,0.649

# Same assay, conditions: first compound 0.01581 µM
row,Cell Line,relative viability
1,NCI-H838,0.512
2,EBC-1,0.859
3,NCI-H1703,0.312
4,NCI-H1993,0.688
5,NCI-H441,0.717
6,PC-14,0.897
7,LCLC-103H,1.06
8,NCI-H596,0.372
9,NCI-H2126,0.813
10,EMC-BAC-2,0.223
11,NCI-H2085,1.07
12,Calu-6,0.519
13,HCC-366,0.616
14,NCI-H1666,0.881
15,NCI-H647,1.05
16,LK-2,0.549
17,NCI-H2087,0.928
18,NCI-H358,0.834

row,Cell Line,relative viability
1,NCI-H2170,0.839
2,H3255,0.702
3,COR-L23,0.183
4,COR-L 105,1.06
5,IA-LM,0.58
6,HCC-44,0.864
7,A549,0.572
8,SK-MES-1,1.03
9,NCI-H2009,1.07
10,NCI-H520,0.166
11,SW 1573,0.69
12,NCI-H1299,1.1
13,NCI-H2228,0.898
14,NCI-H1792,0.752
15,NCI-H2023,0.651
16,NCI-H1563,0.914
17,SK-LU-1,1.06
18,NCI-H661,0.401
